Values of other authors, collected in US12478643B2, “Compositions and methods for the prevention or treatment of rheumatoid arthritis” (Rhode Island Hospital, priority 2021, dated 2025).
Read-outs that look alike come from different tables or passages of the source.

Experiments:
SHIP1 [1] = target: T1, SHIP1 (Homo sapiens, UniProt Q92835)
T1 sequence (Q92835 1-1189): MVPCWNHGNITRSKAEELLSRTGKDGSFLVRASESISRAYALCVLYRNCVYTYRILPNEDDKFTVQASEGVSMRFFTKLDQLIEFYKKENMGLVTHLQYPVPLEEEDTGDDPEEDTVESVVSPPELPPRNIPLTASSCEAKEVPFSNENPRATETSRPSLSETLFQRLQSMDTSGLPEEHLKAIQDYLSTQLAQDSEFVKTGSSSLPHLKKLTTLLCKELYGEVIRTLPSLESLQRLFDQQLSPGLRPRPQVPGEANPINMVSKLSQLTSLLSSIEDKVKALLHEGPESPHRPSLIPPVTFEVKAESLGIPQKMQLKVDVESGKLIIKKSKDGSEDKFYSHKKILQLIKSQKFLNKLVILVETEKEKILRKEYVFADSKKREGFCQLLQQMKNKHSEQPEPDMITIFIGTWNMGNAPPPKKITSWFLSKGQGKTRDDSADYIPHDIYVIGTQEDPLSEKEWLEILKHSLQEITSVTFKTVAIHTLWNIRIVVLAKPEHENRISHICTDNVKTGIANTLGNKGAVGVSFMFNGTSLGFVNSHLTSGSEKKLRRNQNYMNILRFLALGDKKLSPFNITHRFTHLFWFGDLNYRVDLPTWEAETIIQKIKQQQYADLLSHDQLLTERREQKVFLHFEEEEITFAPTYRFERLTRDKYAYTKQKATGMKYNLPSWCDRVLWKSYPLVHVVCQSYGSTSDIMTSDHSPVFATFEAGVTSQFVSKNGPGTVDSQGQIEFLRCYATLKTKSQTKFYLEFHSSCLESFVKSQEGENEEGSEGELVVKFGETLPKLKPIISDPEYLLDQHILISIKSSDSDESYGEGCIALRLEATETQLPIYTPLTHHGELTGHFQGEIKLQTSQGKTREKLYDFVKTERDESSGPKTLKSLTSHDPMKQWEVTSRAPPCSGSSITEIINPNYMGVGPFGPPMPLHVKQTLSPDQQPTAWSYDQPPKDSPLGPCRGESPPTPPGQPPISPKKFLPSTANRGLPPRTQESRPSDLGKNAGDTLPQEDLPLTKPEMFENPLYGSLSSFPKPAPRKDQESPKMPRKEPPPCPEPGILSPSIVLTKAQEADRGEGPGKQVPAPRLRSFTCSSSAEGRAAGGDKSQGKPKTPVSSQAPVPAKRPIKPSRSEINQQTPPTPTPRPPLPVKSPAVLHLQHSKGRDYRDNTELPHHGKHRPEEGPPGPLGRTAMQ

SHIP1 [2] = target: T1, SHIP1; conditions: at 100 μM; cited from earlier work
SHIP2 = target: T2, SHIP2 (Homo sapiens, UniProt O15357); conditions: at 100 μM; cited from earlier work
T2 sequence (O15357 1-1258): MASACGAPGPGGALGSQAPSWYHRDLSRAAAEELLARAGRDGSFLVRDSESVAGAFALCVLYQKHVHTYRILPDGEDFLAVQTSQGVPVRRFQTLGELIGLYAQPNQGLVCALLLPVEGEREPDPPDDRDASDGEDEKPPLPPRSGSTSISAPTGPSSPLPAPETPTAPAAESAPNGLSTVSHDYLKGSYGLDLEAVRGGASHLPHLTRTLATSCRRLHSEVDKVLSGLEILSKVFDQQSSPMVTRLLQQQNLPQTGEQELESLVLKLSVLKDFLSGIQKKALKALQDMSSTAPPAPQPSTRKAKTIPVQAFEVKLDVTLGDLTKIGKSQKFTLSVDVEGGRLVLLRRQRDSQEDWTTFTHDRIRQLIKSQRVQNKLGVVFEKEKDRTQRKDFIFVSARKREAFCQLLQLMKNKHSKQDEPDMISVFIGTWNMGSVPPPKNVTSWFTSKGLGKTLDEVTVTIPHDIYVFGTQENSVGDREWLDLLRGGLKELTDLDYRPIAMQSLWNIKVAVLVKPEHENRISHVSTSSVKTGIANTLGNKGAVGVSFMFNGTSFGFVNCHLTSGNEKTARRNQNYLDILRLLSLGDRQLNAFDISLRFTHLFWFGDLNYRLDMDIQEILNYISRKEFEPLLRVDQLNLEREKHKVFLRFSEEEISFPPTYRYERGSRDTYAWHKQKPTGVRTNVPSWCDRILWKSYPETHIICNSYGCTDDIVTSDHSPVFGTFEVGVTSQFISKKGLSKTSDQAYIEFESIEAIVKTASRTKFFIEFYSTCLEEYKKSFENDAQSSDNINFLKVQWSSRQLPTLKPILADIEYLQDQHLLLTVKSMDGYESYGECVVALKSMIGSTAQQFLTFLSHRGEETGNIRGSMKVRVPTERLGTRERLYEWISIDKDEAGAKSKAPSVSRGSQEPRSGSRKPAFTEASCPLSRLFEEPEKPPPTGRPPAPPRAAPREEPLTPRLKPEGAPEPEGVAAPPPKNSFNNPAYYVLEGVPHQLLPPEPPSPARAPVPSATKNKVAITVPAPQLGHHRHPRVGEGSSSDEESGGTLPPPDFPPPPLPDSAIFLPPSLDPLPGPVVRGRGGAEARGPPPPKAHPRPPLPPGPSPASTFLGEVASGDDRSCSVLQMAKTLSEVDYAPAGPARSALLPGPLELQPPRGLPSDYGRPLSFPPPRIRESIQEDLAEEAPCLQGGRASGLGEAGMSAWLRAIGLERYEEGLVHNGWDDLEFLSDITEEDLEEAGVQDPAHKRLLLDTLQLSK

[3] = Table 1; read-out: IC50 SHIP1; cited from earlier work

For `C[C@H](NC(=O)c1sccc1OCc1ccc(Cl)cc1)c1ccccc1` [AS194490], which IC50 (SHIP1 [1]; [3]) is on record?
The IC50 was 13 µM.

For `O[C@H](c1cc(-c2ccccc2)nc2c1ccc1ccccc12)[C@@H]1CCCCN1` [Compound 26], which “inhibition of SHIP1 activity” value (SHIP1 [2]) is on record?
The value was “completely inhibited”.

And the “inhibition of SHIP2” value (SHIP2)?
Its value is “approximately 60%”.

Which “inhibition of SHIP1 activity” value (SHIP1 [2]) does the source give for `O[C@H](c1cc(C2C3CC4CC(C3)CC2C4)nc2c(Cl)cc(Cl)cc12)[C@@H]1CCCCN1` (some centres unmarked) [Compound 27] here?
Its value is “completely inhibited”.

And the “inhibition of SHIP2” value (SHIP2)?
The value was 90%.

Which “inhibition of SHIP1 activity” value (SHIP1 [2]) does the source give for `CSc1ccc2c(c1)c(CCN)c(C)n2Cc1ccccc1Cl` [Compound 28] here?
Its value is “approximately 70%”.

And the “inhibition of SHIP2” value (SHIP2)?
The value was 50%.

Which IC50 (SHIP1 [1]; [3]) does the source give for `CC[C@H]1CC[C@H]2[C@@H]3C[C@@H](O)[C@@]4(O)C[C@H](N)CC[C@]4(C)[C@H]3CC[C@]12C` [Compound K116] here?
Its IC50 is 1.5 to 6 µM.

With `CC12CCCC1C1CCC3CC(N)CCC3(C)C1CC2` (centres unmarked) [Compound K118] as the molecule, how does the IC50 (SHIP1 [1]; read-out: IC50 SHIP1; Table 1; cited from earlier work) read?
Its IC50 is 16 µM.

With `CC12CCCC1C1CCC3CC(N)C(N)CC3(C)C1CC2` (centres unmarked) [Compound K161] as the molecule, how does the IC50 (SHIP1 [1]; [3]) read?
Its IC50 is 6 µM.

Which IC50 (SHIP1 [1]; [3]) does the source give for `CC12CCCC1C1CCC3CC(N)CCC3(C)C1CC2` (centres unmarked) [Compound K185] here?
Its IC50 is 18 µM.
